Data published in ChEMBL document CHEMBL5724696, “Autophagy assay results for EUbOPEN Chemogenomics Library” (2024).

How the values were obtained:
U2OS [1] = assay: (§1) Here: values are normalized to the positive (DMSO; basel flux = defined as 100% suppression) and negative (250nM Torin1; mTOR inhibitor; maximal inducer of autophagy defined as 0% suppression) control compounds and represented as % of ER-phagy suppression. […] The impact of autophagy induction on cells is complex and depends on the affected target. […] Of note, treatment concentrations may be sub-optimal for specific compounds, leading to false negative annotations.; assay type: functional, Homo sapiens; settings: Compound Concentration 1 uM, Culturing Media DMEM, 1 % Penicillin/Streptomycin, 10% Fetal bovin serum Add-On: blasticidin, Screening Media Control DMEM, 10% Fetal bovin serum Add-On: 1 µg/ml Doxycyclin, Screening Media Samples DMEM, 10% Fetal bovin serum Add-On: 1 µg/ml Doxycyclin 250nM Torin1
U2OS [2] = assay: as §1; assay type: functional, Homo sapiens; settings: Compound Concentration 1 uM, Culturing Media DMEM, 1 % Penicillin/Streptomycin, 10% Fetal bovin serum Add-On: blasticidin, Screening Media Control DMEM, 10% Fetal bovin serum Add-On: 1 µg/ml Doxycyclin, Screening Media Samples DMEM, 10% Fetal bovin serum Add-On: 1 µg/ml Doxycyclin 250nM Torin1; remark: listed apart in the source

Row | SMILES | ER-phagy suppression (U2OS [1]; Timepoint 12 hours) | ER-phagy suppression (U2OS [1]; Timepoint 24 hours) | ER-phagy suppression (U2OS [1]; Timepoint 36 hours) | ER-phagy suppression (U2OS [1]; Timepoint 54 hours) | ER-phagy suppression (U2OS [2]; Timepoint 12 hours) | ER-phagy suppression (U2OS [2]; Timepoint 24 hours) | ER-phagy suppression (U2OS [2]; Timepoint 36 hours) | ER-phagy suppression (U2OS [2]; Timepoint 60 hours)
1 | Cc1c(NC(=O)c2ccc(C(C)(C)C)cc2)cccc1-c1cn(C)c(=O)c(Nc2ccc(C(=O)N3CCOCC3)cc2)n1 | -19.8949% | -28.4876% | -32.1203% | -24.8408% | -0.6222% | -11.9993% | -14.8569% | -20.2284%
2 | Cc1ccc(-c2ccc3c(ccc4sc5c(c43)NC[C@@H](C)NC5=O)n2)cn1 | -17.2516% | -0.875% | 6.096% | 19.149% | 5.336% | 5.52% | 7.693% | 5.525%
3 | CCOC(=O)c1c(/C(C#N)=C\N)c2ccc(Cl)c(Cl)c2n1C | -23.9161% | -42.4331% | -44.7519% | -41.2832% | -5.524% | -4.715% | 1.333% | -3.592%
4 | C[C@@H](N)[C@H]1CC[C@H](C(=O)Nc2ccncc2)CC1.Cl.Cl | -40.2837% | -57.1688% | -58.7515% | -55.2677% | -1.165% | -12.4028% | 0.04526% | 2.669%
5 | CCOc1cc(N2CCC(O)CC2)ccc1Nc1ncc2c(n1)N(C)c1ccccc1C(=O)N2C | -49.4363% | -63.2462% | -50.7543% | -40.8997% | 41.1735% | 16.7232% | 17.4074% | 10.8345%
6 | CNc1nc(-c2ccc3c(N)n[nH]c3c2)cc(N2C[C@@H](C(=O)NC3CCCCC3)CC[C@H]2C)n1 | -64.3148% | -57.2907% | -47.7488% | -36.1372% | 0.4494% | -26.9041% | -20.7872% | -21.6855%
7 | Cc1ccc(NC(=O)Nc2cc(C(F)(F)F)ccc2F)cc1Nc1ccc2c(c1)NC(=O)/C2=C\c1ccc[nH]1 | -7.664% | -22.8744% | -24.0512% | -22.1975% | 18.743% | -2.579% | -6.116% | -1.261%
8 | CCc1cncnc1N1CCN(Cc2nc3cc(C(F)(F)F)ccc3[nH]2)CC1 | -12.878% | -26.39% | -24.8445% | -23.0115% | -3.169% | -14.0511% | -20.9455% | -35.5971%
9 | OCCn1cc(-c2ccc3c(c2)CCC3=NO)c(-c2ccncc2)n1 | -23.6151% | -59.1263% | -53.5237% | -39.7477% | 13.4101% | 0.6971% | -0.91% | 0.4621%
10 | CN(c1ncccc1CNc1nc(Nc2ccc3c(c2)CC(=O)N3)ncc1C(F)(F)F)S(C)(=O)=O.O=S(=O)(O)c1ccccc1 | 6.672% | -24.1053% | -34.2095% | -20.8605% | -10.0797% | -6.87% | 0.4518% | 0.1589%
11 | CN([C@@H](Cc1ccc(OS(=O)(=O)c2cccc3cnccc23)cc1)C(=O)N1CCN(c2ccccc2)CC1)S(=O)(=O)c1cccc2cnccc12 | -1.9452% | -10.891% | -4.8506% | -2.408% | 11.3745% | -2.8225% | -4.115% | -4.142%
